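A five-concentration, 48-hour dose response in 96-well plates underlies each endpoint, interpolated linearly between surrounding concentrations. TGI denotes the concentration required for complete inhibition of growth.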
Columns and labels:
Experiment in all cases: NCI-60 cell line screen, 48 h
[1] = test system: SK-MEL-5 melanoma
[2] = test system: MALME-3M melanoma
[3] = test system: TK-10 renal
[4] = test system: A549 NSCLC
[5] = test system: DU-145 prostate
[6] = test system: PC-3 prostate
[7] = test system: MDA-N
[8] = test system: NCI-H460 lung
[9] = test system: OVCAR-5 ovarian
[10] = test system: SF-268 CNS
[11] = test system: SNB-19 CNS
[12] = test system: T-47D breast
[13] = test system: 786-0 renal
[14] = test system: HCT-15 colon
[15] = test system: MDA-MB-435
[16] = test system: SK-OV-3 ovarian
[17] = test system: EKVX NSCLC
[18] = test system: SK-MEL-28 melanoma
[19] = test system: UACC-257 melanoma
[20] = test system: HT29 colon
[21] = test system: COLO 205 colon
[22] = test system: CAKI-1 renal
[23] = test system: SF-539 CNS
[24] = test system: ACHN renal
[25] = test system: HS 578T breast
[26] = test system: U251 CNS
[27] = test system: OVCAR-8 ovarian
[28] = test system: HCC-2998 colon
[29] = test system: NCI-H522 lung
[30] = test system: MDA-MB-231 breast
[31] = test system: KM12 colon
[32] = test system: RXF 393 renal
[33] = test system: SNB-75 CNS
[34] = test system: K-562 leukemia
[35] = test system: SK-MEL-2 melanoma
[36] = test system: HOP-92 NSCLC
[37] = test system: HOP-62 NSCLC
[38] = test system: IGROV1 ovarian
[39] = test system: UACC-62 melanoma
[40] = test system: LOX IMVI melanoma
[41] = test system: MOLT-4 leukemia
[42] = test system: OVCAR-4 ovarian
[43] = test system: HCT-116 colon
[44] = test system: M14 melanoma
[45] = test system: SW-620 colon
[46] = test system: SN12C renal
[47] = test system: BT-549 breast
[48] = test system: OVCAR-3 ovarian
[49] = test system: SF-295 CNS
[50] = test system: SR leukemia
[51] = test system: UO-31 renal
[52] = test system: NCI/ADR-RES ovarian
[53] = test system: NCI-H23 lung
[54] = test system: CCRF-CEM leukemia
[55] = test system: MCF7 breast
[56] = test system: NCI-H226 lung
[57] = test system: RPMI-8226 leukemia
[58] = test system: A498 renal
[59] = test system: HL-60(TB) leukemia

Measured: TGI

COc1cc(/C=C2/C[C@H]3[C@@H]4CC=C5C[C@@H](OC(C)=O)CC[C@]5(C)[C@H]4CC[C@]3(C)NC2=O)cc(OC)c1OC
62.5 µM: [30]
36.7 µM: [13]
83.3 µM: [3]
37.5 µM: [23]
50.2 µM: [51]
54.4 µM: [52]
60.3 µM: [2] | [16]
46.5 µM: [26]
47 µM: [39]
65.9 µM: [49]
92.2 µM: [9]
39.4 µM: [32]
74.2 µM: [25]
41.9 µM: [11]
70.9 µM: [18]
72.8 µM: [12]
52.4 µM: [35]
44.6 µM: [24]
76 µM: [10]
52.3 µM: [36]
47.3 µM: [33]
62.3 µM: [42]
59.4 µM: [29]
69.6 µM: [38]
91.4 µM: [41]
97.1 µM: [19]
55.3 µM: [5]
68.3 µM: [17]
44.3 µM: [6]
55 µM: [47]
67 µM: [53]
59.3 µM: [4]
73.1 µM: [37]
not listed: [56] | [57] | [58] | [59]
> 100 µM: all other assays above

CC1(C)CC(=O)c2c(nc3ccc4ccccc4c3c2-c2ccc(NC(=O)CCCCCCCCC(=O)Nc3ccc(-c4c5c(nc6ccc7ccccc7c46)CC(C)(C)CC5=O)cc3)cc2)C1
not listed: [2] | [28] | [29] | [32] | [33] | [42]
> 100 µM: all other assays above

N#Cc1ccccc1-c1nc2c3c(c(N)ccc3n1)C(=O)c1ccccc1-2
74.5 µM: [1]
43.6 µM: [22]
not listed: [50]
> 100 µM: all other assays above

CSc1n[nH]c(N)c1C(=O)Nc1ccc(C)cc1
68.3 µM: [36]
82.7 µM: [58]
94.8 µM: [12]
not listed: [27] | [31] | [33] | [38] | [52]
> 100 µM: all other assays above

CCCCCC(C)SC1(C(=O)OC)CC(OC(C)=O)C(NC(C)=O)C([C@H](OC(C)=O)[C@@H](COC(C)=O)OC(C)=O)O1 (stereo partly specified)
97 µM: [25]
70.1 µM: [23]
64.4 µM: [35]
not listed: [16] | [17] | [21] | [39] | [40] | [42] | [54]
> 100 µM: all other assays above

O=C1/C(=N\S(=O)(=O)c2ccccc2)C([n+]2ccc(Cc3ccccc3)cc2)=C([O-])c2ccccc21
> 100 µM: [57] | [34] | [50] | [54]
2.54 µM: [19]
3.45 µM: [23]
6.2 µM: [3]
12.7 µM: [36]
13 µM: [12]
2.51 µM: [28]
4.33 µM: [24]
3.73 µM: [56]
1.49 µM: [20]
4.62 µM: [51]
2.68 µM: [44]
2.12 µM: [55]
6.09 µM: [25]
3.49 µM: [9]
18.5 µM: [16]
3.3 µM: [11]
2.2 µM: [48]
3.27 µM: [17] | [37]
3.44 µM: [22]
2.14 µM: [18]
3.12 µM: [46]
2.46 µM: [43]
6.59 µM: [32]
4.92 µM: [38]
0.377 µM: [15]
1.96 µM: [45]
3.22 µM: [49]
1.83 µM: [40]
3 µM: [35]
3.36 µM: [14]
2.22 µM: [8]
4.49 µM: [41]
0.346 µM: [7]
3.58 µM: [13]
3.74 µM: [4]
1.36 µM: [53]
18.3 µM: [52]
4.7 µM: [31]
8.06 µM: [27]
2.89 µM: [5]
9.39 µM: [6]
2.42 µM: [39]
9.89 µM: [30]
0.302 µM: [1]
2.72 µM: [47]
2.64 µM: [33]
2.11 µM: [29]
5.48 µM: [26]
1.14 µM: [21]
1.73 µM: [2]
3.9 µM: [10]
3.13 µM: [42]

CSC1=N/C(=C\c2ccco2)C(=O)N1CN1CCOCC1
> 92.6 µM: [50]
> 89.4 µM: [24]
> 90.3 µM: [54]
> 95.4 µM: [45]
> 80.4 µM: [57]
> 66.9 µM: [43]
41.2 µM: [47]
97 µM: [28]
> 80.7 µM: [2]
> 78.3 µM: [10]
> 88.7 µM: [46]
> 96.2 µM: [41]
> 80.3 µM: [1]
35.3 µM: [23]
27.7 µM: [8]
44.6 µM: [32]
not listed: [36] | [59]
> 100 µM: all other assays above
